In patent US20070134261A1, “Effectors of innate immunity” (priority 2001, published 2007):
Residues, ends and D or L forms follow the SMILES beside them.

Test system: primary human macrophages
Assay: Polynucleotide arrays of primary human macrophages treated with SEQ ID NO: 6 (Tables 27, 28)
Assay type: cell-based
Conditions: 50 μg/ml, 4 h

For `CC[C@H](C)[C@H](NC(=O)[C@@H]1CCCN1C(=O)[C@H](CS)NC(=O)[C@H](CCCNC(=N)N)NC(=O)[C@@H](N)CC(C)C)C(=O)N[C@@H](C)C(=O)N1CCC[C@H]1C(=O)N[C@H](C(=O)N[C@H](C(=O)N1CCC[C@H]1C(=O)N[C@H](C(=O)N[C@@H](CS)C(=O)N[C@@H](CCCCN)C(=O)N[C@@H](CCCCN)C(=O)O)C(C)C)[C@@H](C)CC)C(C)C` [SEQ ID NO: 6] (H-LRCPIAPVIPVCKK-OH; N-terminus and C-terminus assumed), the “Ratio peptide treated:control, Unknown” value (A433612) was 5.0, the “Ratio peptide treated:control, KIAA1278 protein” value (AB03104) was 2.9 and the “Ratio peptide treated:control, proteasome 26S subunit non-ATPase 13” value (AB009398) was 0.44. The “Ratio peptide treated:control, KIAA0532 protein” value (AB011104) was 2.8, the “Ratio peptide treated:control, KIAA0592 protein” value (AB011164) was 4.0 and the “Ratio peptide treated:control, IL-1 receptor-like 1” value (AB012701) was 0.35. The “Ratio peptide treated:control, interferon alpha-inducible protein” value (AB019565) was 0.35, the “Ratio peptide treated:control, KIAA0842 protein” value (AB020649) was 0.13 and the “Ratio peptide treated:control, KIAA0922 protein” value (AB023139) was 2.1. For the same compound, the “Ratio peptide treated:control, KIAA1013 protein” value (AB023230) was 3.4, the “Ratio peptide treated:control, protease, serine, 21” value (AB031331) was 2.0 and the “Ratio peptide treated:control, hypothetical protein FLJ20689” value (AB032978) was 2.9. The “Ratio peptide treated:control, cofactor required for Sp1 transcriptional activation subunit 3” value (AB033042) was 0.23, the “Ratio peptide treated:control, pancreatic zymogen granule membrane associated protein” value (AB035541) was 3.7 and the “Ratio peptide treated:control, Unknown” value (AB037838) was 0.14. For the same compound, the “Ratio peptide treated:control, CDC14 homolog A” value (AF000367) was 3.8, the “Ratio peptide treated:control, TNF receptor superfamily, member 10b” value (AF016266) was 0.37 and the “Ratio peptide treated:control, TNF superfamily, member 15” value (AF039390) was 0.46. For the same compound, the “Ratio peptide treated:control, transcription factor 21” value (AF047419) was 5.4, the “Ratio peptide treated:control, proteasome subunit alpha type, 7” value (AF054185) was 0.40 and the “Ratio peptide treated:control, Granulin” value (AF055008) was 0.14. The “Ratio peptide treated:control, matrix metalloproteinase 23A” value (AF056200) was 2.7, the “Ratio peptide treated:control, chromosome condensation 1-like” value (AF060219) was 4.8 and the “Ratio peptide treated:control, Unknown” value (AF068289) was 2.8. For the same compound, the “Ratio peptide treated:control, histone fold proteinCHRAC17” value (AF070640) was 3.8, the “Ratio peptide treated:control, NADH dehydrogenase 1 alpha subcomplex, 10” value (AF087661) was 2.1 and the “Ratio peptide treated:control, potassium voltage-gated channel KQT-like subfamily member 4” value (AF105202) was 3.9. The “Ratio peptide treated:control, FYN-binding protein” value (AF198052) was 3.3, the “Ratio peptide treated:control, c-Cbl-interacting protein” value (AF230904) was 2.4 and the “Ratio peptide treated:control, hypothetical protein FLJ20070” value (AK000077) was 3.4. The “Ratio peptide treated:control, hypothetical protein FLJ20495” value (AK000502) was 3.5, the “Ratio peptide treated:control, Unknown” value (AK001843) was 8.2 and the “Ratio peptide treated:control, peroxisome proliferative activated receptor delta” value (AL022721) was 0.46. For the same compound, the “Ratio peptide treated:control, proteasome 26S subunit non-ATPase, 10” value (AL031177) was 0.32, the “Ratio peptide treated:control, Unknown” value (AL031864) was 2.9 and the “Ratio peptide treated:control, Unknown” value (AL049263) was 0.06. The “Ratio peptide treated:control, DKFZP586B2420 protein” value (AL050143) was 5.9, the “Ratio peptide treated:control, Unknown” value (AL050370) was 0.38 and the “Ratio peptide treated:control, Unknown” value (AL109678) was 5.6. The “Ratio peptide treated:control, Unknown” value (AL117643) was 2.7, the “Ratio peptide treated:control, eukaryotic translation initiation factor 4A, isoform 2” value (AL137681) was 3.4 and the “Ratio peptide treated:control, Unknown” value (AL137715) was 4.4. The “Ratio peptide treated:control, proteasome subunit alpha type, 4” value (D00763) was 0.49, the “Ratio peptide treated:control, proteasome 26S subunit ATPase, 2” value (D11094) was 0.49 and the “Ratio peptide treated:control, defender against cell death 1” value (D15057) was 0.46. For the same compound, the “Ratio peptide treated:control, proteasome subunit beta type, 4” value (D26600) was 0.29, the “Ratio peptide treated:control, proteasome subunit beta type, 5” value (D29011) was 0.33 and the “Ratio peptide treated:control, proteasome 26S subunit non-ATPase 8” value (D38047) was 0.28. The “Ratio peptide treated:control, proteasome subunit beta type 7” value (D38048) was 0.22, the “Ratio peptide treated:control, KIAA0152 gene product” value (D63486) was 0.17 and the “Ratio peptide treated:control, Cryptochrome 1” value (D83702) was 3.8. For the same compound, the “Ratio peptide treated:control, TGFB1-induced anti-apoptotic factor 1” value (D86970) was 0.19, the “Ratio peptide treated:control, MAP kinase kinase 3” value (D87116) was 0.37 and the “Ratio peptide treated:control, proteasome 26S subunit ATPase, 1” value (L02426) was 0.49. The “Ratio peptide treated:control, MAP kinase kinase 1” value (L11284) was 2.4, the “Ratio peptide treated:control, MAP kinase 14” value (L35263) was 2.2 and the “Ratio peptide treated:control, interferon receptor 2” value (L42243) was 2.5. For the same compound, the “Ratio peptide treated:control, IL-1 receptor-associated kinase 1” value (L76191) was 0.45, the “Ratio peptide treated:control, LINE retrotransposable element 1” value (M22333) was 4.0 and the “Ratio peptide treated:control, TNF receptor superfamily member 1B” value (M32315) was 0.29. The “Ratio peptide treated:control, proteasome 26S subunit, ATPase, 3” value (M34079) was 0.35, the “Ratio peptide treated:control, proteasome subunit beta type, 6” value (M34079) was 0.38 and the “Ratio peptide treated:control, lymphocyte antigen” value (M38056) was 3.2. For the same compound, the “Ratio peptide treated:control, H1 histone family, member 4” value (M60748) was 3.0, the “Ratio peptide treated:control, Cathepsin D” value (M63138) was 0.36 and the “Ratio peptide treated:control, protein kinase, cAMP-dependent, regulatory, type I, beta” value (M65066) was 2.9. For the same compound, the “Ratio peptide treated:control, TGF, beta-induced,” value (M77349) was 0.37, the “Ratio peptide treated:control, S100 calcium-binding protein A4” value (M80563) was 0.31 and the “Ratio peptide treated:control, cathepsin E” value (M84424) was 2.7. For the same compound, the “Ratio peptide treated:control, actinin, alpha 3” value (M86407) was 6.9, the “Ratio peptide treated:control, interferon regulatory factor 2” value (NM 002199) was 2.0 and the “Ratio peptide treated:control, calumenin” value (NM_001219) was 2.9. The “Ratio peptide treated:control, glutathione peroxidase 3” value (NM_002084) was 0.15, the “Ratio peptide treated:control, LPS-induced TNF-alpha factor” value (NM_004862) was 0.41 and the “Ratio peptide treated:control, bone morphogenetic protein 1” value (NM_006129) was 2.1. The “Ratio peptide treated:control, MAP kinase kinase kinase 2” value (NM_006609) was 0.32, the “Ratio peptide treated:control, SDF receptor 1” value (NM_012428) was 0.35 and the “Ratio peptide treated:control, TERF1 (TRF1)-interacting nuclear factor 2” value (NM_012461) was 4.2. For the same compound, the “Ratio peptide treated:control, nuclear receptor binding protein” value (NM_013392) was 0.38, the “Ratio peptide treated:control, cyclin-dependent kinase inhibitor 1B” value (S76988) was 2.2 and the “Ratio peptide treated:control, POU domain, class 4, transcription factor 2” value (U06233) was 2.8. The “Ratio peptide treated:control, MAP kinase kinase kinase kinase 2” value (U07349) was 0.46, the “Ratio peptide treated:control, MAP kinase-activated protein kinase 2” value (U12779) was 0.34 and the “Ratio peptide treated:control, caspase 3” value (U13737) was 0.35. For the same compound, the “Ratio peptide treated:control, MAP kinase kinase 5” value (U25265) was 0.44, the “Ratio peptide treated:control, E2F transcription factor 5, p130-binding” value (U31556) was 3.5 and the “Ratio peptide treated:control, TNF superfamily member 10” value (U37518) was 0.46. The “Ratio peptide treated:control, integrin-linked kinase” value (U40282) was 0.13, the “Ratio peptide treated:control, guanine nucleotide binding protein, gamma transducing activity polypeptide 1” value (U41492) was 3.3 and the “Ratio peptide treated:control, mucosal vascular addressin cell adhesion molecule 1” value (U43628) was 3.2. The “Ratio peptide treated:control, 1-acylglycerol-3-phosphate O-acyltransferase 1” value (U56417) was 4.0, the “Ratio peptide treated:control, caspase 7” value (U67319) was 0.49 and the “Ratio peptide treated:control, apoptosis inhibitor 4” value (U75285) was 4.2. The “Ratio peptide treated:control, TNF receptor superfamily, member 14” value (U81232) was 0.26, the “Ratio peptide treated:control, bone morphogenetic protein receptor, type IB” value (U89326) was 2.1 and the “Ratio peptide treated:control, transferrin receptor” value (X01060) was 0.42. The “Ratio peptide treated:control, protease inhibitor 1 alpha-1-antitrypsin” value (X01683) was 0.40, the “Ratio peptide treated:control, Cathepsin L” value (X12451) was 0.44 and the “Ratio peptide treated:control, cytochrome c oxidase subunit Vic” value (X13238) was 0.30. The “Ratio peptide treated:control, cathepsin H” value (X16832) was 0.47, the “Ratio peptide treated:control, protein kinase C, alpha” value (X52479) was 2.4 and the “Ratio peptide treated:control, glycoprotein IX” value (X52997) was 3.4. For the same compound, the “Ratio peptide treated:control, glypican 1” value (X54232) was 3.2, the “Ratio peptide treated:control, jun D proto-oncogene” value (X56681) was 0.35 and the “Ratio peptide treated:control, proteasome subunit alpha type, 6” value (X59417) was 0.31. For the same compound, the “Ratio peptide treated:control, Sp3 transcription factor” value (X68560) was 3.6, the “Ratio peptide treated:control, Vacuolar proton-ATPase, subunit D; V-ATPase, subunit D” value (X71490) was 4.0 and the “Ratio peptide treated:control, chymotrypsin-like protease” value (X71877) was 2.9. The “Ratio peptide treated:control, phosphorylase kinase alpha 1” value (X73874) was 7.1, the “Ratio peptide treated:control, zinc finger protein 266” value (X78924) was 2.2 and the “Ratio peptide treated:control, ribosomal protein L11” value (X79234) was 0.32. The “Ratio peptide treated:control, translational inhibitor protein p14.5” value (X95384) was 3.0, the “Ratio peptide treated:control, c-fos induced growth factor” value (Y12864) was 2.3 and the “Ratio peptide treated:control, disintegrin protease” value (Y13323) was 0.21. The “Ratio peptide treated:control, matrix metalloproteinase 7” value (Z11887) was 0.49, the “Ratio peptide treated:control, proteoglycan 2” value (Z26248) was 9.3 and the “Ratio peptide treated:control, matrix metalloproteinase 14” value (Z48481) was 0.32. The “Ratio peptide treated:control, POU domain, class 2, associating factor 1” value (Z49194) was 2.8 and the “Ratio peptide treated:control, protease inhibitor 12” value (Z81326) was 0.48.
